Laboratory results published in patent publication US5179217A, “Method of preparing photochemotherapic alkylangelicin compounds” (priority 1982, dated 1993).
Several values for one entry are separate records, joined by “and”; a condition that tells them apart may be missing. Equal entries are not always repeated. Where two headings read alike, the source gives them in different places.

Key:
[1] = tested on: DNA; experiment: Binding parameters of the complexes between 6-alkylangelicins and DNA (in the dark); set-up: K values: unit not given here; settings: for -n (number of nucleotides occluded by one bound molecule) / l/-n (frequency of binding sites, ligands bound per nucleotide): according to Mc Ghee and Von Hippel; for K values: complex with DNA
Source text: (§1) The 6-alkylangelicins show a strong affinity with DNA in the dark, thus forming molecular intercalated complexes; moreover the 6-methylangelicins complexed to DNA by irradiation bind very strongly to the macromolecule, inducing only monofunctional lesions (Table I).
(§2) Binding parameters of the complexes between 6-alkylangelicins and DNA
^a According to Mc Ghee and Von Hippel, (J.Mol. Biol., 86, 469, 1974)
-n is defined here as the number of nucleotides occluded by one bound
molecule of angelicin derivative.
^b l/-n defines, according to Mc Ghee and Von Hippel, the frequency o
binding sites; in other words, the number of ligands bound per nucleotide
and can be considered analogous to the "-n" value obtained by the classic
Scratchard method (Ann. N.Y. Acad. Sci., 51, 660, 1949).

[2] = tested on: DNA; experiment: Rate constant of photoreaction with DNA; type: biochemical; settings: irradiation
Source text: as §1, §2
and rate constant of their photoreactions with the macromolecule.

[3] = tested on: Ehrlich ascites tumor cells; experiment: Inhibition of DNA synthesis in Ehrlich ascites tumor cells; type: cell-based; settings: relative to angelicin = 100
Source text: (§3) The 6-alkylangelicins show a strong antiproliferative activity in Ehrlich ascites tumor cells (Table II) and on the skin of mice in terms of DNA synthesis inhibition (Table III). These compounds are practically unable to induce skin phototoxicity on albino guinea-pig skin (Table II).
(§4) (a) Determined according to Bordin et al., Il Farmaco, Ed.Sc., 36, 506,

[4] = tested on: albino guinea-pig skin; experiment: Skin erythemogenic activity / skin phototoxicity on albino guinea-pig skin; settings: in vivo
Source text: as §3, §4

[5] = tested on: epidermal DNA synthesis; experiment: Inhibition of epidermal DNA synthesis in the mouse in vivo after topical application and UV-A irradiation; settings: topical 50 μg/cm^2, UV-A 9 J/cm^2, ± S.E.
Procedure: Inhibition of epidermal DNA synthesis in the mouse "in vivo"
after topical application (50 μg/cm^2) of the compound and

[6] = tested on: epidermal DNA synthesis; experiment: Inhibition of epidermal DNA synthesis in the mouse in vivo after oral administration and UV-A irradiation; settings: light or radiation study, read-out: % inhibition of epidermal DNA synthesis
Procedure: The strong activity of the 6-alkylangelicins according to the invention in inhibiting the epidermal DNA synthesis of mice after oral administration (see Table VI) allows to consider these compounds effective also by oral administration in humans and UV-A irradiation.
Inhibition of epidermal DNA synthesis
in the mouse "in vivo" after oral
administration of the compound (250 mg/kg)
and UV-A irradiation (9 J/cm^2) (a).
as §4

[7] = tested on: psoriatic lesions; settings: for % clearance: topical 5 μg/cm^2 + UV-A (maximal dose 4-10 J/cm^2), 9-15 treatments; for dark pigmentation of human skin: treated area, patients
Procedure: In the treated patients various areas 4×4 cm of the affected skin were used:
a) in the first area an ethanolic solution (0.1% W/V) of the compound under investigation, was applied until a concentration of 5 μg/cm^2 was reached and left to evaporate by the heat of the body (or by hot air stream).
c) a third area was treated in the same way as area a), but was not irradiated with UV-A;
d) a fourth area was irradiated as in a) with the same dose of UV-A light in the absence of any compound.

[8] = tested on: E. coli WP2-uvr A; type: cell-based
Procedure: Mutagenic activity of 6-alkylangelicins on E. coli
WP2-uvr A by irradiation with UV-A (a).
(a) The test was performed at the furocoumarin concentration of 5 μg/m
according to Venturini et al., Chem. Biol. Interactions, 30, 203, 1980.

[9] = Acute toxicity (LD50) in mice; settings: mouse, in vivo
[10] = tested on: DNA; settings: reference compound; data from Dall'Acqua et al. 1979; cited from earlier work
[11] = tested on: DNA; settings: reference compound; data from Dall'Acqua et al. 1979; cited from earlier work; remark: listed apart in the source
[12] = tested on: mice; experiment: Acute toxicity (LD50) in mice; settings: mice, per os; 6,4'-dimethylangelicin in methylcellulose suspension
[13] = mouse in vivo, oral 250 mg/kg, UV-A 9 J/cm^2, ± S.E.
[14] = UV-A irradiation time 10 seconds
[15] = UV-A irradiation time 20 seconds
[16] = UV-A irradiation time 30 seconds
[17] = UV-A irradiation time 60 seconds

Row | Structure (SMILES) | -n (number of nucleotides occluded by one bound molecule) [1] | l/-n (frequency of binding sites, ligands bound per nucleotide) [1] | K values [1] | rate constant of photoreaction with DNA [2] [min^-1 × 10^2] | Relative activity (inhibition of DNA synthesis in Ehrlich ascites tumor cells) [3] | skin erythemogenic activity [4] | % inhibition of epidermal DNA synthesis [5] [%] | inhibition at 250 mg/kg [6, 13] [%] | no of mutants per 10^6 survivors [8, 14] | no of mutants per 10^6 survivors [8, 15] | no of mutants per 10^6 survivors [8, 16] | no of mutants per 10^6 survivors [8, 17] | further results
1 | Cc1cc2ccc(=O)oc2c2c(C)coc12 [6,4'-dimethylangelicin] | 16.39 | 0.061 ± 0.003 | 6,300 ± 541 | 9.90 | 1096 | - | 36.56 ± 3.9 | 49.2 ± 8 | 0.96 mutants per 10^6 survivors | 1.76 mutants per 10^6 survivors | 2.63 mutants per 10^6 survivors |  | skin phototoxicity on guinea-pig skin [4]: absence of skin phototoxicity on guinea-pig skin; pigmental capacity ([7]; single psoriatic patients, topical 5 μg/cm^2 + UV-A): +; % clearance ([7]; single psoriatic patients, listed as 6,4'-DMA): 100% and 90%; dark pigmentation of human skin [7]: evident dark pigmentation in the treated area, less pronounced than that induced by 8-MOP; genotoxicity, mutagenic activity [8]: low genotoxicity; LD50 ([9]; ip): 750 mg/kg; LD50 ([9]; po): > 2000 mg/kg
2 | Cc1cc(=O)oc2c1cc(C)c1occ(C)c12 [6,4,4'-trimethylangelicin] | 10.99 | 0.091 ± 0.0045 | 10,100 ± 1190 | 13.30 | 41666 | - |  | 67.7 ± 8.2 | 0.84 mutants per 10^6 survivors | 1.18 mutants per 10^6 survivors | 1.24 mutants per 10^6 survivors | 1.98 mutants per 10^6 survivors | skin phototoxicity on guinea-pig skin [4]: absence of skin phototoxicity on guinea-pig skin; % clearance ([7]; single psoriatic patients, listed as 6,4,4'-TMA): 100% and 95% and 90%; dark pigmentation of human skin [7]: appears more active; genotoxicity, mutagenic activity [8]: low genotoxicity
3 | Cc1cc2c(o1)c(C)cc1c(C)cc(=O)oc12 [6,4,5'-trimethylangelicin] | 22.22 | 0.045 ± 0.002 | 3,310 ± 281 | 7.02 | 646 | - |  | 36.8 ± 8.5 | 0.62 mutants per 10^6 survivors | 0.91 mutants per 10^6 survivors | 1.23 mutants per 10^6 survivors | 1.93 mutants per 10^6 survivors | 
4 | Cc1cc(=O)oc2c1cc(C)c1occc12 [6,4-dimethylangelicin] | 15.87 | 0.063 ± 0.003 | 2,990 ± 232 | 5.23 | 625 | - | 47.05 ± 4.3 | 58.4 ± 13 | 0.24 mutants per 10^6 survivors | 0.7 mutants per 10^6 survivors | 0.99 mutants per 10^6 survivors | 1.83 mutants per 10^6 survivors | 
5 | Cc1cc2c(o1)c(C)cc1ccc(=O)oc12 [6,5'-dimethylangelicin] | 12.82 | 0.078 ± 0.004 | 1,975 ± 136 | 3.00 | 210 | - |  | 22.5 ± 12 |  |  |  |  | 
6 | Cc1cc2c(o1)c(C)c(C)c1ccc(=O)oc12 [6,5,5'-trimethylangelicin] | 14.29 | 0.070 ± 0.0035 | 3,730 ± 339 | 2.30 |  |  | 36.01 ± 11.7 | 60.6 ± 14.1 |  |  |  |  | 
7 | Cc1c(C)c2occc2c2oc(=O)ccc12 [6,5-dimethylangelicin] |  |  |  |  |  |  | 52.83 ± 2.3 | 50.1 ± 19 |  |  |  |  | 
8 | Cc1cc2ccc(=O)oc2c2ccoc12 [6-methylangelicin] | 20.83 | 0.048 ± 0.002 | 925 ± 64 | 3.60 | 95 | - | 29.25 ± 13.3 | 19.6 ± 9.2 |  |  |  |  | 
9 | COc1c2occc2cc2ccc(=O)oc12 [8-MOP, 8-methoxypsoralen, reference compound] |  |  |  |  |  | ++ | 61.0 ± 1.6 | 39.1 ± 3.7 | 0.4 mutants per 10^6 survivors | 1.15 mutants per 10^6 survivors | 1.5 mutants per 10^6 survivors | 3.1 mutants per 10^6 survivors | induction of skin erythema in humans ([7]; human, in vivo): severe phototoxic response; no of mutants per 10^6 survivors ([8]; UV-A irradiation time 90 seconds): 7.0 mutants per 10^6 survivors; -n (number of nucleotides occluded by one bound molecule) [10]: 7.81; K values [10]: 736; l/-n (frequency of binding sites, ligands bound per nucleotide) [10]: 0.128; rate constant of photoreaction with DNA [11]: 3.10 min^-1 × 10^2; LD50 ([9]; ip): 300 mg/kg; LD50 [12]: 750 mg/kg
10 | O=c1ccc2ccc3occc3c2o1 [angelicin] | 15.87 | 0.063 ± 0.003 | 560 | 1.10 |  |  | 17.5 ± 2.5 |  |  |  |  |  | inhibition at 250 mg/kg ([6]; Mus musculus, po): 28 ± 2%
